From article PMC2802518 (Biochemistry, 2009)

Biological target: T1, tCD14-His6 (truncated CD14) (Homo sapiens, UniProt P08571)
T1 sequence (P08571 20-175 limits assumed): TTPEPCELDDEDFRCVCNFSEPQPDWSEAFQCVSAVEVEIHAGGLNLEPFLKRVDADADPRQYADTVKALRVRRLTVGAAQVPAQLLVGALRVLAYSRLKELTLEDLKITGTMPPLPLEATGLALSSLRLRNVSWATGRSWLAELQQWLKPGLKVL
Assay type: binding

IC50 [nM] | SMILES
2000 | CCCCCCCCCCCCCCO[C@H]1[C@@H](OC)O[C@H](CN)[C@@H](O)[C@@H]1OCCCCCCCCCCCCCC [compound 2, methyl 6-deoxy-6-amino-2,3-di-O-tetradecyl-α-D-glucopyranoside]
400 | CCCCCCCCCCCCCCOc1ccc(C[N+](C)(C)C2CCCC2)cc1OCCCCCCCCCCCCCC [compound 3, N-(3,4-bis-tetradecyloxy-benzyl)-N-cyclopentyl-N,N-dimethylammonium]
800 | CCCCCCCCCCCCCCO[C@H]1[C@@H](OC)O[C@H](C[N+](C)(C)C2CCCC2)[C@@H](O)[C@@H]1OCCCCCCCCCCCCCC [compound 1, methyl 6-deoxy-6-N-dimethyl-N-cyclopentylamonium-2,3-di-O-tetradecyl-α-D-glucopyranoside]
